Where “and” joins values, the source holds several entries; their conditions need not be identical. Identical values can stand only once.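 Briefly, cells in 96-well plates were exposed to five compound concentrations for 48 h, and endpoints were estimated by linear interpolation. GI50 is the concentration that inhibits growth by half. TGI is the concentration that stops growth completely.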
What was measured:
Assay in all cases: growth of human tumour cells (NCI), 48 h
DMS 273 small cell lung = tested on: DMS 273 small cell lung
HOP-18 NSCLC = tested on: HOP-18 NSCLC
SNB-78 CNS = tested on: SNB-78 CNS
XF 498 CNS = tested on: XF 498 CNS
MCF7 breast = tested on: MCF7 breast
MDA-MB-435 = tested on: MDA-MB-435
T-47D breast = tested on: T-47D breast
BT-549 breast = tested on: BT-549 breast

SMILES | TGI (SNB-78 CNS) | GI50 (MCF7 breast) | TGI (MCF7 breast) | GI50 (MDA-MB-435) | TGI (MDA-MB-435) | GI50 (T-47D breast) | TGI (T-47D breast) | GI50 (BT-549 breast) | TGI (BT-549 breast) | other results
CC/C(C)=C1\CCC(CN2CCOCC2)C1=O (configuration not stated) | 50.5 µM |  |  |  |  |  |  |  |  | TGI (DMS 273 small cell lung): 32.4 µM; TGI (HOP-18 NSCLC): 34.1 µM; TGI (XF 498 CNS): 33.4 µM
CC1C[C@@]2(c3ccccc3)C(=O)CCC[C@H]2N1 (some centres not stated) | > 100 µM |  |  |  |  |  |  |  |  | TGI (DMS 273 small cell lung): > 100 µM
CC(=O)[O-].CC(=O)[O-].[Pt+2].c1cscn1.c1cscn1 |  | 37.3 µM | > 100 µM | > 100 µM | > 100 µM | 62 µM | > 100 µM |  |  | 
O=C(/C=C/c1ccc([N+](=O)[O-])o1)N1CCN(Cc2ccccc2)CC1 | 54.5 µM |  |  |  |  |  |  |  |  | TGI (DMS 273 small cell lung): 24 µM; TGI (HOP-18 NSCLC): 37.1 µM; TGI (XF 498 CNS): 30.4 µM
C=CCC(N[C@H](CO)c1ccccc1)c1ccc2ccccc2n1 (some centres not stated) |  |  |  | > 100 µM | > 100 µM | > 100 µM | > 100 µM | > 100 µM | > 100 µM | 
CCOC(=O)C(N)C[S][Sn]([CH3])([CH3])[Cl] (configuration not stated) | > 100 µM |  |  |  |  |  |  |  |  | GI50 (DMS 273 small cell lung): > 100 µM; TGI (DMS 273 small cell lung): > 100 µM; GI50 (HOP-18 NSCLC): > 100 µM; TGI (HOP-18 NSCLC): > 100 µM; GI50 (SNB-78 CNS): > 94.3 µM; GI50 (XF 498 CNS): > 100 µM; TGI (XF 498 CNS): > 100 µM
CC(=O)CC(=O)Nc1ccc2ccccc2c1 |  |  | > 100 µM |  | > 100 µM |  | > 100 µM |  | > 100 µM | 
O=[N+]([O-])c1cc(Cl)c(Cl)c([N+](=O)[O-])c1Cl |  | 1.14 µM | 3.42 µM | 1.7 µM | 3.46 µM |  |  | 1.81 µM | 3.39 µM | 
O=C1c2ccccc2C(=O)N1CCCSc1ccccc1 |  |  | > 100 µM |  | > 100 µM |  | > 100 µM |  | > 100 µM | 
COc1ccccc1N1C(=O)/C(=C/c2ccc(N(CCC#N)CCC#N)cc2C)N=C1c1cc([N+](=O)[O-])ccc1Cl | > 100 µM |  |  |  |  |  |  |  |  | TGI (DMS 273 small cell lung): > 100 µM; TGI (HOP-18 NSCLC): > 100 µM; TGI (XF 498 CNS): > 100 µM
CC(=O)N[C@H]1C=C[C@@H]2/C=C(C)/C=C/[C@@H](C)[C@H]([C@H](C)[C@H](O)[C@@H](C)NC(C)=O)OC(=O)/C=C/C=C(C)\C=C\[C@]2(C)C1 |  | 0.0336 µM and 0.0045 µM | 4.65 µM and > 45 µM | 0.00823 µM | 4.65 µM | 0.0131 µM and 0.0045 µM | 4.65 µM and 5.18 µM | 0.023 µM and 0.0045 µM | 4.65 µM and > 45 µM | 
Cn1c([N+](=O)[O-])cnc1/C=C1\Oc2ccccc2C1=O |  | 0.46 µM | 8.88 µM | 0.175 µM | 0.395 µM | 12.7 µM | 68.8 µM | 0.659 µM | 4.17 µM | 
CC[C@H](NC(=O)[C@H](C)NC)C(=O)N1C[C@@H](O)C[C@H]1Cc1c(-c2[nH]c3cc(F)ccc3c2C[C@@H]2C[C@H](O)CN2C(=O)[C@H](CC)NC(=O)[C@H](C)NC)[nH]c2cc(F)ccc12 |  | > 53.3 µM | > 100 µM |  | > 100 µM | > 100 µM | > 100 µM | 0.569 µM | > 41.8 µM | 
ClCc1cccc(Cn2cnc3c(NC45CC6CC(CC(C6)C4)C5)ncnc32)c1 |  | 9.1 µM | 45.5 µM | 13.4 µM | 29.8 µM | 15.1 µM | 36.6 µM | 12.8 µM | 29.4 µM | 
Cn1ccnc1CC(C)(O)c1ccccc1 (configuration not stated) |  |  | > 100 µM |  | > 100 µM |  |  |  | > 100 µM | 
COc1ccc([N+](=O)[O-])c2c(NCCCN(C)C)c3ccccc3nc12 |  |  | 0.203 µM |  | 1.17 µM |  | 3.95 µM |  | 2.83 µM | 

SMILES | TGI (SNB-78 CNS) | GI50 (MCF7 breast) | TGI (MCF7 breast) | GI50 (MDA-MB-435) | TGI (MDA-MB-435) | GI50 (T-47D breast) | TGI (T-47D breast) | GI50 (BT-549 breast) | TGI (BT-549 breast) | other results
COc1ccc([N+]2=NC(c3ccc([N+](=O)[O-])cc3)=NN(c3ccccc3)C2)cc1 | > 100 µM |  |  |  |  |  |  |  |  | TGI (DMS 273 small cell lung): > 100 µM; TGI (XF 498 CNS): > 100 µM
Cc1nc2sc(C(=O)Nc3cccc(Cl)c3C)c(N)c2cc1C(=O)/C=C/c1ccccc1 |  | 0.192 µM | 3.32 µM | 0.111 µM | 0.263 µM | 0.767 µM | 2.4 µM | 0.525 µM | 1.72 µM | 
CCN(CC)CCC(=O)NC1c2ccc(Cl)cc2Oc2c(C)cccc21 (configuration not stated) |  |  | 31 µM |  | 28.3 µM |  | 31.5 µM |  | 27.1 µM | 
COc1cc(Nc2nccc(Nc3ccc4c(C)[nH]nc4c3)n2)cc(OC)c1OC |  | 1.62 µM | 16.9 µM | 0.666 µM | 3.09 µM | 1.44 µM | 7.46 µM | 3.3 µM | 11 µM | 
NOCC(=O)O |  | > 100 µM | > 100 µM | > 100 µM | > 100 µM | > 100 µM | > 100 µM | > 100 µM | > 100 µM | 
CCC1(CC)C(=O)OC(=O)C1(CC)CC |  |  |  |  | > 100 µM |  | > 100 µM |  | > 100 µM | 
O=C(/C=C/c1ccc(F)cc1)c1ccc(Cl)cc1Cl |  | 20.6 µM | 62.5 µM | 50 µM | > 100 µM |  |  | 27.2 µM | 71.6 µM | 
COc1ccc(CN(C)c2ccc(CO)c(Cl)c2)cc1 |  | 0.892 µM | > 64.9 µM | 24.2 µM | 95.4 µM | 0.513 µM | 3.82 µM | 19.8 µM | 73.7 µM | 
O=c1c2c(nc3n1CCS3)[nH]c1ccccc12 |  | > 100 µM | > 100 µM | > 100 µM | > 100 µM | > 100 µM | > 100 µM |  |  | 
COC(=O)c1s/c(=N\C(=S)N(C)C)n(-c2ccccc2)c1C(=O)OC | > 100 µM |  |  |  |  |  |  |  |  | TGI (DMS 273 small cell lung): > 100 µM
O=C(Nc1cc(Cl)c(Cl)cc1Cl)C(=O)C1C=CCS1(=O)=O (configuration not stated) | > 100 µM |  |  |  |  |  |  |  |  | TGI (DMS 273 small cell lung): > 100 µM; TGI (HOP-18 NSCLC): > 100 µM
CC(=O)OCC1OC(N2C(=O)C(=O)c3cc(C)ccc32)C(OC(C)=O)C(OC(C)=O)C1OC(C)=O (configuration not stated) | > 100 µM |  |  |  |  |  |  |  |  | TGI (DMS 273 small cell lung): > 100 µM; TGI (HOP-18 NSCLC): > 100 µM
COc1ccc(-c2onc(-c3ccc([N+](=O)[O-])cc3)c2C2=NCCN2)cc1 | > 100 µM |  |  |  |  |  |  |  |  | TGI (HOP-18 NSCLC): > 100 µM; TGI (XF 498 CNS): > 100 µM
COc1cc2c(cc1OCCCOc1cc3c(cc1OC)C(=O)N1C[C@H](F)C[C@H]1C=N3)N=C[C@@H]1C[C@@H](F)CN1C2=O |  | 3.09 µM | 18.1 µM | 14.3 µM | 27.4 µM | 15.9 µM | 58 µM | 3.36 µM | 17.9 µM | 
CC(C)(C#N)c1cc(Cn2cncn2)cc(C(C)(C)C#N)c1 |  | 2240 µM | > 10000 µM | > 10000 µM | > 10000 µM | 6760 µM | > 10000 µM | 472 µM | > 10000 µM | 

From PubChem BioAssay (NCI)
